Legend:
Format in all cases: cell-based
[1] = test system: Rhodococcus erythropolis PR-4; test: Treatment of various hydrocarbons: growth and localization of PR-4 in organic solvent/IB medium bilayer culture; details: hydrocarbon 5% (v/v) in IB medium, 28° C., 110 rpm, third day of culturing
Experimental: (§1) IB liquid medium was prepared as shown below.
(§2) As n-alkanes, n-hexane (C6), n-octane (C8), n-nonane (C9), n-decane (C10), n-undecane (C11), n-dodecane (C12), n-tridecane (C13), n-tetradecane (C14), n-pentadecane (C15), n-hexadecane (C16), n-heptadecane (C17), and n-octadecane (C18) were used.
(§3) As test strains, Rhodococcus erythropolis PR-4 and Rhodococcus rhodochrous S-2 were used.
(§4) On the third day after the start of culturing, the growth status of the test bacteria and sites where the test bacteria had localized were observed. When the test bacteria were present in the organic solvent, they were labeled “inside” and when they were present on the surface of the organic solvent, they were labeled “surface.” The results are shown in Table 1.

[2] = test system: Rhodococcus rhodochrous S-2; test: Treatment of various hydrocarbons: growth and localization of S-2 in organic solvent/IB medium bilayer culture; details: hydrocarbon 5% (v/v) in IB medium, 28° C., 110 rpm, third day of culturing
Experimental: as §1, §2, §3, §4

[3] = test system: Rhodococcus erythropolis PR-4; test: Investigation of Rhodococcus erythropolis PR-4 adaptation (two-stage culture with different hydrocarbons); set-up: key: ±: growth is shown at interface of hydrocarbon and IB liquid culture medium; +: growth is shown in hydrocarbon; details: pristane (C19) into dodecane (C12): PR-4 first cultured 3 days with pristane, then with dodecane 5% (v/v); third day

Structure (SMILES)	PR-4 growth [1]	S-2 growth [2]	growth [3]
CCCCCCCCCC [n-decane]	±	−	
CCCCCCCCCCCCCCCC [n-hexadecane]	+	±	
CCCCCC [n-hexane]	−	−	
CCCCCCCC [n-octane]	−	−	
CCCCCCCCCCCCCC [n-tetradecane]	+	±	
CCCCCCCCCCCC [n-dodecane]	±	−	+
CC(C)CCCC(C)CCCC(C)CCCCC(C)CCCC(C)CCCC(C)C (stereo not drawn) [n-squalane, squalane]	+	±	

From patent publication US20060263870A1, “Hydrocarbon processing method and hydrocarbon processing system” (NIHON UNIVERSITY, priority 2005, published 2006)
